Results: publication PMC8760490, “Discovery of novel furanylbenzamide inhibitors that target oncogenic tyrosine phosphatase SHP2 in leukemia cells” (The Journal of Biological Chemistry, 2021)
Entries after “also recorded” stand apart in the source; their conditions may differ.

Columns and labels:
SHP2cat [1] = target: T1, SHP2cat (Homo sapiens, UniProt Q06124); assay: Jump-dilution inhibition assay; type: biochemical; conditions: 10× preincubation 10 min, 10× jump dilution
T1 construct: the SHP2 catalytic domain (SHP2cat; residues 248–527); made in house
T1 sequence (Q06124 248-527): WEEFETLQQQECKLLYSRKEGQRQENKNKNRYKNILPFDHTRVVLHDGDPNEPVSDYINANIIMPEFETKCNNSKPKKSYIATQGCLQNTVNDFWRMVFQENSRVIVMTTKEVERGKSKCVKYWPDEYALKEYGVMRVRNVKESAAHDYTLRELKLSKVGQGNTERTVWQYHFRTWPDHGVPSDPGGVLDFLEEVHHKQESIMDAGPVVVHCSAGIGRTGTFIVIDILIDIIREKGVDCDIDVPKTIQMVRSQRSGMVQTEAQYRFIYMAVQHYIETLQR
Description: PTPs contain a highly nucleophilic cysteine that is essential for catalytic activity but is susceptible to oxidation and covalent modifications, which abrogate its nucleophilic function and phosphatase activity ([26]). Because the methylenebenzothiophenone moiety of our inhibitors could potentially act as a Michael acceptor and thus covalently bind to the catalytic cysteine, we tested whether the observed inhibition of SHP2 was dependent on the preincubation time of inhibitor and enzyme. An irreversible covalent inhibitor may show time-dependent inhibition, with increased potency at longer incubation times. […] To test for time-dependent inhibition, SBI-2130 at ten different concentrations was preincubated with SHP2-E76K for 1, 5, 10, 20, or 60 min, before the DiFMUP substrate was added to the reaction mixture and initial rates were recorded (Fig. 3C). […]
SBI-2130 was tested for reversibility of inhibition in a jump-dilution experiment using SHP2cat. […] The enzyme reaction was started by the addition of 5 μl of DiFMUP working solution (100 μM in 50 mM Bis–Tris, pH 6.0, 50 mM NaCl, 0.5 mM EDTA, and 0.01% Tween-20), and fluorescence intensity was measured in kinetic mode (every minute for 10 min) using a Tecan Spark Multimode Microplate Reader as described previously. […] The initial rates were determined from the linear progression curves of the SHP2cat reaction. […]

SHP2cat [2] = target: T1, SHP2cat; assay: Protein thermal shift (PTS) assay; type: binding; conditions: dose response
Excerpt: We confirmed specific and dose-dependent binding of inhibitors to SHP2 by PTS, which monitors the thermal stability of a target protein in vitro ([40]). […] In addition, we confirmed the inhibitory activity of several furanylbenzamide inhibitors, including the top two compounds SBI-2130 and SBI-4668, in SHP2cat inhibition assays using the alternative substrate 3-O-methylfluorescein phosphate (OMFP), which features a peak fluorescence emission that is red-shifted by ∼75 nm compared with DiFMUP. The Km value of OMFP for SHP2cat was determined to be 50 μM. An OMFP fluorescence intensity–based assay was used to perform inhibitor dose–response experiments and determine IC50 values.
Differential scanning fluorimetry (also known as protein thermal shift) measurements of SHP2cat were performed using optimized methods and conditions in accordance with those previously described ([36], [41], [49]). SBI-4668 was spotted at different concentrations into MicroAmp 384-well real-time PCR plates (catalog no.: 4483285; Applied Biosystems) using an Echo 555 Liquid Handler. […] Plates were analyzed using a ViiA 7 Real-Time PCR instrument (Applied Biosystems) and a 12 min temperature gradient with a temperature increase of 0.075 °C/s. The melting temperature and thermal profiles were determined as described previously using Protein Thermal Shift Software, version 1.3 (Applied Biosystems) ([36], [49]).

With `Nc1ccc(NC(=O)c2cc(-c3ccc(/C=C4\Sc5ccccc5C4=O)o3)ccc2O)cc1` [SBI-2130, (Z)-N-(4-Aminophenyl)-2-hydroxy-5-(5-((3-oxobenzo[b]thiophen-2(3H)-ylidene)methyl)furan-2-yl)benzamide] the “reversibility: IC50 curves jump dilution vs regular dose–response” value (SHP2cat [1]) was “reversible inhibitor; also recorded: practically identical”.

With `O=C(Nc1ccccc1)c1cc(-c2ccc(/C=C3\Sc4ccccc4C3=O)o2)ccc1O` [SBI-4668, (Z)-2-Hydroxy-5-(5-((3-oxobenzo[b]thiophen-2(3H)-ylidene)methyl)furan-2-yl)-N-phenylbenzamide] the “change of SHP2cat melting temperature (Tm) vs DMSO” value (SHP2cat [2]) was “dose-dependently increased the melting temperature”.
